Data taken from ChEMBL document CHEMBL2331128, “Nebulosides A-B, novel triterpene saponins from under-ground parts of Gypsophila arrostii Guss. var. nebulosa” (Bioorg Med Chem, 2013).
Activity calls are given as the source filed them. The calls are words filed in the database; no cut-off is given here.

What was measured:
ECV-304 [1] = test: Cytotoxicity against human ECV304 cells at 15 ug/ml after 72 hrs by XTT reduction assay; assay type: cell-based; conditions: ecv-304, 72 h
ECV-304 [2] = test: Induction of type I ribosome-inactivating protein-mediated cytotoxicity of human ECV304 cells measured at 15 ug/ml after 72 hrs by XTT reduction assay; assay type: functional, cell-based

| SMILES | Activity (ECV-304 [1]) | Activity (ECV-304 [2]) |
| --- | --- | --- |
| C[C@@H]1O[C@@H](O[C@H]2[C@H](OC(=O)[C@]34CCC(C)(C)C[C@H]3C3=CC[C@@H]5[C@@]6(C)CC[C@H](O[C@@H]7O[C@H](C(=O)O)[C@@H](O)[C@H](O[C@@H]8OC[C@@H](O)[C@H](O)[C@H]8O)[C@H]7O[C@@H]7O[C@H](CO)[C@H](O)[C@H](O)[C@H]7O[C@@H]7O[C@H](CO)[C@H](O)[C@H](O)[C@H]7O)[C@@](C)(C=O)[C@@H]6CC[C@@]5(C)[C@]3(C)CC4)O[C@H](C)[C@@H](O)[C@@H]2O)[C@H](O)[C@H](O[C@@H]2O[C@H](CO)[C@@H](O)[C@H](O)[C@H]2O)[C@H]1O[C@@H]1OC[C@@H](O)[C@H](O[C@@H]2OC[C@@H](O)[C@H](O)[C@H]2O)[C@H]1O | Non-toxic | Active |
| C[C@@H]1O[C@@H](O[C@H]2[C@H](OC(=O)[C@]34CCC(C)(C)C[C@H]3C3=CC[C@@H]5[C@@]6(C)CC[C@H](O[C@@H]7O[C@H](C(=O)O)[C@@H](O)[C@H](O[C@@H]8OC[C@@H](O)[C@H](O)[C@H]8O)[C@H]7O[C@@H]7O[C@H](CO)[C@H](O)[C@H](O)[C@H]7O)[C@@](C)(C=O)[C@@H]6CC[C@@]5(C)[C@]3(C)C[C@H]4O)O[C@H](C)[C@@H](O)[C@@H]2O)[C@H](O)[C@H](O[C@@H]2O[C@H](CO)[C@@H](O)[C@H](O)[C@H]2O)[C@H]1O[C@@H]1OC[C@@H](O)[C@H](O[C@@H]2OC[C@@H](O)[C@H](O)[C@H]2O)[C@H]1O | Non-toxic | Active |
